Target: T1, GmMAN19-1 (Glycine max, UniProt I1NBK5, Q294W)
T1 construct: gene LOC100787923; mature form, signal peptide 1-27 removed; pGEX-4T-1 (EcoRI/XhoI) N-terminal GST fusion from E. coli BL21(DE3), GST cut with thrombin leaving N-terminal Gly-Ser; ~40 kDa; 371 residues in the crystal structure
T1 sequence (I1NBK5 28-410 Q294W): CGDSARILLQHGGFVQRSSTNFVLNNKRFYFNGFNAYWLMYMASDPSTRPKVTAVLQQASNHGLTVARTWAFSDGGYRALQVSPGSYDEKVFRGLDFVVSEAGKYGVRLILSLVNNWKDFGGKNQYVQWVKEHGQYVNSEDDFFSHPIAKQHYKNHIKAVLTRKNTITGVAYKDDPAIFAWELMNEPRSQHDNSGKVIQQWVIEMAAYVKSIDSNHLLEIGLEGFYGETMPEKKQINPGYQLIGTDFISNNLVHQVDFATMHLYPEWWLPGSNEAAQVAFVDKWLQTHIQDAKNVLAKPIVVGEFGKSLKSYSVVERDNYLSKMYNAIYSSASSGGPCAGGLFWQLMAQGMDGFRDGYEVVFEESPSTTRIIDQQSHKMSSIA
Assay: TLC product profile of M5 conversion
Assay type: biochemical
Conditions: 1 μM enzyme, 25 mM M5, pH 4.6, 40 °C (optimal assay conditions); hydrolysis and transglycosylation

In the case of `OC[C@H]1O[C@@H](O[C@H]2[C@H](O)[C@H](O)[C@H](O[C@H]3[C@H](O)[C@H](O)[C@H](O[C@H]4[C@H](O)[C@H](O)[C@H](O[C@H]5[C@H](O)[C@H](O)C(O)O[C@@H]5CO)O[C@@H]4CO)O[C@@H]3CO)O[C@@H]2CO)[C@@H](O)[C@@H](O)[C@@H]1O` (stereo partly shown) [M5, mannopentaose], the “TLC product profile of M5 conversion” value is reported as “the Q267W mutant displayed an altered transglycosylation profile, generating shorter-chain oligosaccharides”.

From paper PMC12512182, “Unveiling the Structural and Biochemical Characteristics of an Acidophilic β‑Mannanase from Soybean (Glycine max)” (Journal of Agricultural and Food Chemistry, 2025)
